Measured values as given in patent US20180099931A1 (AbbVie S.à.r.l., priority 2016, published 2018).
Where two headings read alike, the source gives them in different places.

Molecular target: T1, F508delCFTR (Homo sapiens, UniProt P13569, DEL508-508)
T1 construct: expressed in transfected cells; host or cells: CFBE41o- human lung-derived epithelial cells (CFBE4lo-F508delCFTR-HRP), doxycycline-inducible
Test: Cell Surface Expression-Horse Radish Peroxidase (CSE-HRP) Assay;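 on Maximum % activity (with co-corrector): co-corrector and positive control are both the same reference corrector at 2 µM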;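 on Maximum % activity (without co-corrector): percent of the 2 µM on-plate positive control corrector response above DMSO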
Format: cell-based
Details: for Maximum % activity (with co-corrector) / Emax / Maximum % activity (without co-corrector): maximum at any tested concentration, normalized to on-plate positive control; for Emax: read-out: Maximum % activity (without co-corrector)

[1] = CSE-HRP, test compound without co-corrector, read-out: EC50 (without co-corrector)
[2] = CSE-HRP, with co-corrector (2 μM of 3-[(2R,4R)-4-({[1-(2,2-difluoro-1,3-benzodioxol-5-yl)cyclopropyl]carbonyl}amino)-7-methoxy-3,4-dihydro-2H-chromen-2-yl]benzoic acid), read-out: EC50 (with co-corrector)
[3] = CSE-HRP, with co-corrector (2 μM)
[4] = test compound without co-corrector
[5] = test compound without co-corrector, read-out: EC50 (without co-corrector)
[6] = with co-corrector (2 μM of 3-[(2R,4R)-4-({[1-(2,2-difluoro-1,3-benzodioxol-5-yl)cyclopropyl]carbonyl}amino)-7-methoxy-3,4-dihydro-2H-chromen-2-yl]benzoic acid)
[7] = with co-corrector (2 μM of 3-[(2R,4R)-4-({[1-(2,2-difluoro-1,3-benzodioxol-5-yl)cyclopropyl]carbonyl}amino)-7-methoxy-3,4-dihydro-2H-chromen-2-yl]benzoic acid), read-out: EC50 (with co-corrector)

T1 sequence (P13569 with tags, fused parts or gaps DEL508-508): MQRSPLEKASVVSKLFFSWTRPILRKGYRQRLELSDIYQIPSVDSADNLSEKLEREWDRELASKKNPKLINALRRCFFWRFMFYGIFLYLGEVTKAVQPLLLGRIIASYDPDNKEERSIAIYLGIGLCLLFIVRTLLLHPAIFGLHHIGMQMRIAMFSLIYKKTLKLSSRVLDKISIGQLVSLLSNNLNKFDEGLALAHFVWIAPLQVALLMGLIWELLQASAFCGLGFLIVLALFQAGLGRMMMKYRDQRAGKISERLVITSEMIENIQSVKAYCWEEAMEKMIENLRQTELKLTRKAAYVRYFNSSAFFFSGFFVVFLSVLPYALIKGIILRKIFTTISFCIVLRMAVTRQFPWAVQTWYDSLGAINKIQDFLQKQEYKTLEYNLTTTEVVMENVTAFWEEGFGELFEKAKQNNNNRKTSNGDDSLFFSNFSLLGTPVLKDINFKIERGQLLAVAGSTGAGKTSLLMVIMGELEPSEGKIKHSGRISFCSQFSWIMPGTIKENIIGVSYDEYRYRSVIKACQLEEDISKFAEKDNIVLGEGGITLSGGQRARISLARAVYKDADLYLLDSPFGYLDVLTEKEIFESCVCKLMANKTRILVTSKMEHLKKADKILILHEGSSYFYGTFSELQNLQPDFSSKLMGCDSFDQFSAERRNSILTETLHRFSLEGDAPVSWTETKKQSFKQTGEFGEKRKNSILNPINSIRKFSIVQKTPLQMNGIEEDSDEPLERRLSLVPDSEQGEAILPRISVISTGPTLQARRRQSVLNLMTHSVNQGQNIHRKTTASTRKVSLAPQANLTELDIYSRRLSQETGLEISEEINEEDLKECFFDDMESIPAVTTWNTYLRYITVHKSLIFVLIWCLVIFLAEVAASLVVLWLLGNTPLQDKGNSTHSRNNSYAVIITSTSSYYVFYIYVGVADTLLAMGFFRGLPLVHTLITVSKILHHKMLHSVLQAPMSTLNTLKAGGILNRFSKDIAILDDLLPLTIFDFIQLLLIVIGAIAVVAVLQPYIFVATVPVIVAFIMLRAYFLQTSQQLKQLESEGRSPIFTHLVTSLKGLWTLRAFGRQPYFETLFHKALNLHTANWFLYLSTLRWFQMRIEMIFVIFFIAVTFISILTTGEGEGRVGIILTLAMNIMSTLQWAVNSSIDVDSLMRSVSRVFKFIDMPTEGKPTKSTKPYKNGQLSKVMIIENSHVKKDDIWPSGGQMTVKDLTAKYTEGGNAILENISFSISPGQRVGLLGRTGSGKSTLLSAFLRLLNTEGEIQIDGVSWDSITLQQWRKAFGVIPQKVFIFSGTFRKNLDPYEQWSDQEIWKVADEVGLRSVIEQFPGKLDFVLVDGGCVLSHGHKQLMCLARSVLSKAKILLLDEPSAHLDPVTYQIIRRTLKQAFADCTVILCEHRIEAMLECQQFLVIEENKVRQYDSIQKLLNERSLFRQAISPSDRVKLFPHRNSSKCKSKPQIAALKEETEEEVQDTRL

Row | EC50 [1] | EC50 [2] | Maximum % activity (with co-corrector) [3] | Emax (CSE-HRP, without co-corrector) | Emax [4] | EC50 [5] | Maximum % activity (with co-corrector) [6] | EC50 [7] | SMILES | also measured
1 | 1000 to 10000 nM | 1000 to 10000 nM | +++ (≥350) | 100 to 200% |  |  |  |  | COc1ncccc1NC1CC(N[C@H]2[C@H](C(C)(C)C)[C@@H](C(=O)O)N(C(=O)OC(C)C)[C@H]2c2ccccc2C2CC2)C1 (stereo partly drawn) [Example I-276] | 
2 |  |  |  |  | < 100% | 1000 to 10000 nM | ++ (≥150 and <350) | 1000 to 10000 nM | CC(C)(C)[C@@H]1[C@@H](Nc2ccc(C(F)(F)F)cn2)[C@@H](c2ccccc2)N(C(=O)C2CCCCC2)[C@H]1C(=O)O (racemic) [III-5] | 
3 |  |  |  |  | 100 to 200% | 1000 to 10000 nM | +++ (≥350) | 1000 to 10000 nM | COc1ccc(C2(C#N)CC2)cc1CN[C@H]1[C@H](C(C)(C)C)[C@@H](C(=O)O)N(C(=O)C2CCCCC2)[C@H]1c1ccccc1 [II-400] | 
4 |  |  |  |  | > 200% | 1000 to 10000 nM | +++ (≥350) | < 1000 nM | COc1ccc(C(C)(C)C)cc1CN[C@H]1[C@H](C(C)(C)C)[C@@H](C(=O)O)N(C(=O)[C@@H]2CCC[C@@H](OC)C2)[C@H]1c1cccnc1N(C)C (relative stereo) [II-449] | 
5 | 1000 to 10000 nM | 1000 to 10000 nM | +++ (≥350) | > 200% |  |  |  |  | COc1ccc(C(C)(C)C)cc1CN[C@H]1[C@H](C(C)(C)C)[C@@H](C(=O)O)N(C(=O)C2(c3ccccn3)CC2)[C@H]1c1ccccc1 [II-189] | 
6 | 1000 to 10000 nM | 1000 to 10000 nM | ++ (≥150 and <350) | < 100% |  |  |  |  | COc1ncc(C(F)(F)F)cc1CN[C@H]1[C@H](C(C)(C)C)[C@@H](C(=O)O)N(C(=O)C2CCC2)[C@H]1c1ccccc1C(F)(F)F [Example I-280] | 
7 |  |  |  |  |  | 1000 to 10000 nM |  | < 1000 nM | COc1ccc(C(F)(F)F)cc1CN[C@H]1[C@H](C(C)(C)C)[C@@H](C(=O)O)N(C(=O)OC(C)C)[C@H]1c1ccccc1C(C)C [Example 83, (2S,3S,4S,5S)-3-tert-butyl-4-({[2-methoxy-5-(trifluoromethyl)phenyl]methyl}amino)-1-{[(propan-2-yl)oxy]carbonyl}-5-[2-(propan-2-yl)phenyl]pyrrolidine-2-carboxylic acid] | Maximum % activity (with co-corrector) (with co-corrector (2 μM)): +++ (≥350); Emax (without co-corrector): > 200%
8 | 1000 to 10000 nM | 1000 to 10000 nM | +++ (≥350) | 100 to 200% |  |  |  |  | COc1ccc(OC(F)F)cc1CN[C@H]1[C@H](C(C)(C)C)[C@@H](C(=O)O)N(C(=O)C2CCCCC2)[C@H]1c1ccccc1 [II-292] | 
9 |  |  |  |  | 100 to 200% | 1000 to 10000 nM | +++ (≥350) | 1000 to 10000 nM | COc1ccc(C(C)(C)C)cc1CN[C@H]1[C@H](C(C)(C)C)[C@@H](C(=O)O)N(C(=O)[C@@H]2CCC[C@](C)(O)C2)[C@H]1c1ccccc1 [II-526] | 
10 |  |  |  |  | > 200% | < 1000 nM |  | < 1000 nM | COc1ccc(C(C)(C)C)cc1CN[C@H]1[C@H](C(C)(C)C)[C@@H](C(=O)O)N(C(=O)C2C3C2[C@H]2CC[C@@H]3C2)[C@H]1c1ccccc1 (stereo partly drawn) [III-192] | Maximum % activity (with co-corrector) (with co-corrector (2 μM)): +++ (≥350)
11 |  |  |  |  |  | 1000 to 10000 nM | ++ (≥150 and <350) | 1000 to 10000 nM | COc1ccc(C(C)(C)C)cc1CN[C@H]1[C@H](C(C)(C)C)[C@@H](C(=O)O)N(C(=O)C2COc3ccccc3O2)[C@H]1c1cccnc1N(C)C (single isomer, unassigned) [II-472] | Maximum % activity (without co-corrector) [4]: + (<100)
12 |  |  |  |  |  | 1000 to 10000 nM |  | 1000 to 10000 nM | COc1ccc(C(F)(F)F)cc1CN[C@@H]1[C@@H](C(C)(C)C)[C@H](C(=O)O)N(C(=O)OC(C)C)[C@@H]1c1cccnc1N(C)C (racemic) [Example I-29] | Maximum % activity (with co-corrector) (with co-corrector (2 μM)): +++ (≥350); Emax (without co-corrector): > 200%
13 |  |  |  |  | 100 to 200% | 1000 to 10000 nM | +++ (≥350) | < 1000 nM | COc1ccc(C(C)(C)C)cc1CN[C@H]1[C@H](C(C)(C)C)[C@@H](C(=O)O)N(C(=O)c2cnn(C(C)(C)C)c2C#N)[C@H]1c1ccccc1 [II-355] | 
14 | 1000 to 10000 nM | < 1000 nM | +++ (≥350) | > 200% |  |  |  |  | COc1ccc(C(C)(C)C)cc1CN[C@H]1[C@H](C(C)(C)C)[C@@H](C(=O)O)N(C(=O)Cc2ccccc2)[C@H]1c1ccccc1 [II-180] | 
15 | 1000 to 10000 nM | 1000 to 10000 nM | +++ (≥350) | > 200% |  |  |  |  | COc1ccc(C(F)(F)F)cc1CN[C@@H]1[C@@H](C(C)(C)C)[C@H](C(=O)O)N(C(=O)C2CCOC(C)(C)C2)[C@@H]1c1ccccc1N(C)C (mixture of isomers) [II-24] | 
16 |  |  |  |  | 100 to 200% | < 1000 nM | +++ (≥350) | 1000 to 10000 nM | COc1nc(C(C)(C)C)ncc1CN[C@H]1[C@H](C(C)(C)C)[C@@H](C(=O)O)N(C(=O)C2CCCC(F)(F)C2)[C@H]1c1ccccc1 (relative stereo) [II-477] | 
17 | 1000 to 10000 nM | 1000 to 10000 nM | +++ (≥350) | > 200% |  |  |  |  | COc1cc(C(F)(F)F)ccc1CN[C@H]1[C@H](C(C)(C)C)[C@@H](C(=O)O)N(C(=O)OC(C)C)[C@H]1c1cccnc1N1CCC1 [Example I-275] | 
18 |  |  |  |  | > 200% | 1000 to 10000 nM | +++ (≥350) | 1000 to 10000 nM | COc1ccc(C(C)(C)C)cc1CN[C@H]1[C@H](C(C)(C)C)[C@@H](C(=O)O)N(C(=O)[C@@H]2CCC[C@@](C)(O)C2)[C@H]1c1ccccc1 [II-533] | 
19 |  |  |  |  |  | 1000 to 10000 nM |  | 1000 to 10000 nM | COc1ccc(C(C)(C)C#N)cc1CN[C@H]1[C@H](C(C)(C)C)[C@@H](C(=O)O)N(C(=O)C2CCCCC2)[C@H]1c1ccccc1 [Example I-88] | Maximum % activity (with co-corrector) (with co-corrector (2 μM)): +++ (≥350); Emax (without co-corrector): 100 to 200%
20 |  |  |  |  | > 200% | < 1000 nM | +++ (≥350) | < 1000 nM | COc1ccc(C(C)(C)C)cc1CN[C@H]1[C@H](C(C)(C)C)[C@@H](C(=O)O)N(C(=O)C2CCc3cc(Cl)ccc32)[C@H]1c1ccccc1 (stereo partly drawn) [II-369] | 
21 |  |  |  |  |  | 1000 to 10000 nM |  | < 1000 nM | COc1ccc(C2(C)CCC2)cc1CN[C@H]1[C@H](C(C)(C)C)[C@@H](C(=O)O)N(C(=O)C2CCCCC2)[C@H]1c1cccnc1OC [Example I-238] | Maximum % activity (with co-corrector) (with co-corrector (2 μM)): +++ (≥350); Emax (without co-corrector): > 200%
22 | 1000 to 10000 nM | 1000 to 10000 nM | +++ (≥350) | > 200% |  |  |  |  | COc1ccc(Cl)cc1CN[C@@H]1[C@@H](C(C)(C)C)[C@H](C(=O)O)N(C(=O)OC(C)C)[C@@H]1c1cccnc1N(C)C (racemic) [II-28] | 
23 | > 10000 nM | 1000 to 10000 nM | ++ (≥150 and <350) | < 100% |  |  |  |  | COc1cc(CN[C@H]2[C@H](C(C)(C)C)[C@@H](C(=O)O)N(C(=O)C3CCCCC3)[C@H]2c2ccccc2)ccc1F [II-112] | 
24 |  |  |  |  |  | 1000 to 10000 nM |  | < 1000 nM | COc1ccc(C(C)(C)C)cc1CN[C@H]1[C@H](C(C)(C)C)[C@@H](C(=O)O)N(C(=O)C2Cc3ccccc3O2)[C@H]1c1cccnc1OC (single isomer, unassigned) [Example I-166] | Maximum % activity (with co-corrector) (with co-corrector (2 μM)): +++ (≥350); Maximum % activity (without co-corrector) (without co-corrector): + (<100)
25 |  |  |  |  | < 100% | > 10000 nM |  | > 10000 nM | COc1cc(Cl)ccc1CN[C@H]1[C@H](C(C)(C)C)[C@@H](C(=O)O)N(C(=O)C2CCCCC2)[C@H]1c1ncccc1OC (racemic) [III-143] | Maximum % activity (with co-corrector) (with co-corrector (2 μM)): + (<150)
26 |  |  |  |  | 100 to 200% | 1000 to 10000 nM | +++ (≥350) | 1000 to 10000 nM | COc1cc(C(F)(F)F)ccc1CN[C@H]1[C@H](C(C)(C)C)[C@@H](C(=O)O)N(C(=O)OC(C)C)[C@H]1c1cccnc1N(C)C [II-514] | 
27 |  |  |  |  | < 100% | 1000 to 10000 nM | ++ (≥150 and <350) | 1000 to 10000 nM | COc1ccc(C(F)(F)F)cc1CN[C@@H]1[C@@H](C(C)(C)C)[C@@H](C(=O)O)N(C(=O)C2CCCCC2)[C@H]1c1ccccc1 [II-413] | 
28 | 1000 to 10000 nM | 1000 to 10000 nM | +++ (≥350) | 100 to 200% |  |  |  |  | COc1ccc(-c2cccc(C#N)c2)cc1CN[C@H]1[C@H](C(C)(C)C)[C@@H](C(=O)O)N(C(=O)C2CCCCC2)[C@H]1c1ccccc1 [II-281] | 
29 |  |  |  |  |  | 1000 to 10000 nM | +++ (≥350) | 1000 to 10000 nM | COc1ccc(C(C)(C)C)cc1CN[C@H]1[C@H](C(C)(C)C)[C@@H](C(=O)O)N(C(=O)C2CCc3cc(F)ccc3O2)[C@H]1c1cccnc1N(C)C (stereo partly drawn) [II-482] | Maximum % activity (without co-corrector) [4]: ++ (≥100 and <200)
30 |  |  |  |  | > 200% | 1000 to 10000 nM | +++ (≥350) | 1000 to 10000 nM | COc1ccc(C(C)(C)C)cc1CN[C@H]1[C@H](C(C)(C)C)[C@@H](C(=O)O)N(C(=O)[C@H]2C[C@@H]3CC[C@H]2O3)[C@H]1c1ccccc1 [II-543] | 
